Data published in PMC3284447, “In vivo antinociception of potent mu opioid agonist tetrapeptide analogues and comparison with a compact opioid agonist - neurokinin 1 receptor antagonist chimera” (Molecular Brain, 2012).
Entries after “also recorded” stand apart in the source; their conditions may differ.

Assays:
DOR [1] = tested on: DOR; set-up: method as in PMID 21413804; settings: MVD tissue bioassay; means of 3-6 experiments ± SEM; cited from earlier work
male C57Bl6 mice [2] = experiment: hot water tail-flick test, tolerance after daily i.v. administration for 5 days; assay type: in vivo, mouse
Procedure: (§1) Nociceptive responses to thermally-induced pain were assessed by the hot water tail-flick test using male C57Bl6 mice. Animals (weighing 25-28 g) were maintained on a normal light-dark cycle and testing occurred during the light cycle. Mice were injected intravenously (i.v.) with the examined drug, dissolved in saline, at different doses. For the verification of drug-induced antinociceptive tolerance, the investigated compounds were administered (i.v.) once per day for 5 days (2 and 4 mg/kg for SBCHM01 and 4 mg/kg for both AN81 and BVD03) and the analgesic effect was measured on the first and the fifth day of the experiment. In each case (both acute and chronic treatment) the effect was measured over a minimum time period of 120 minutes. The antinociceptive effect was measured in triplicate at the following time points post-injection: 5, 15, 30, 60, 120 min (and 180 min for SBCHM01; due to the strong and long-lasting analgesic effect produced by AN81 (Figure 2C), there was no possibility to prolong the experiment, which - if prolonged - could in consequence cause major damage to the animal's tail, thus giving spurious nociceptive responses). Responses to thermal hot stimulus were assessed by the latency with which the mouse removed its tail from 55°C water. A cut-off time of 10 s was used in order to prevent tissue damage.
(§2) In order to compare the antinociceptive effect induced by the examined drugs, morphine was used as a standard reference.
(§3) Data are presented as means ± standard errors of the mean (SEM). All of the calculations and statistical analysis were performed using Prism 5.0 (Graph Pad Software, San Diego, CA, USA). The nociceptive scores were analyzed using a two-way Anova with Bonferroni's post hoc test. The p value (the value of probability) as well as inferential statistics - F test, which include information about the obtained magnitude or value of the test statistic and degrees of freedom, are represented.

MOR [3] = target: MOR; set-up: method as in PMID 21413804; settings: [^3H]DAMGO, rat brain membrane; cited from earlier work
DOR [4] = experiment: MVD (mouse vas deferens) tissue bioassay, DOR-representative; settings: SBCHM01 compared to AN81, MVD EC50
Source text: Aba: 4-amino-1,2,4,5-tetrahydro-2-benzazepin-3-on; BBB: blood-brain barrier; CNS: central nervous system; DML: designed multiple ligand; Dmt: 2',6'-dimethyl-(S)-tyrosine; DOR: δ-opioid receptor; GPI: Guinea pig ileum; KOR: κ-opioid receptor; MOR: μ-opioid receptor; MPE: maximal possible effect; MVD: mouse vas deferens; NK1: neurokinin 1.

DOR [5] = target: DOR; set-up: method as in PMID 21413804; settings: [^3H]DSLET, rat brain membrane; cited from earlier work
MOR [6] = tested on: MOR; set-up: method as in PMID 21413804; settings: GPI tissue bioassay; means of 3-6 experiments ± SEM; cited from earlier work
NK1R = settings: calculated using the Schild's equation; cited from earlier work
Source text: Table 1 In vitro functional activities and affinities of opioid- and opioid-NK1 ligands | column: NK1R pA2^a

hNK1R = settings: [^3H]-SP, hNK1-CHO membranes; means ± SEM of three independent experiments; one site competition fitting; cited from earlier work
Source text: Table 1 In vitro functional activities and affinities of opioid- and opioid-NK1 ligands | column: hNK1R Ki (nM)^b

DOR [7] = experiment: DOR binding, displacement of [^3H]DSLET from rat brain membranes; settings: SBCHM01 compared to AN81, Ki
male C57Bl6 mice [8] = experiment: hot water tail-flick test, acute antinociception after i.v. administration; assay type: in vivo, mouse; settings: i.v.; for %MPE: 120 min, ± SEM
Procedure: as §1, §2, §3

KOR = settings: [^3H]U69,593, guinea pig brain membrane; cited from earlier work
Source text: Table 1 In vitro functional activities and affinities of opioid- and opioid-NK1 ligands | column: KOR Ki (nM)^e, f

rodents = settings: administered centrally or peripherally in rodents; cited from earlier work
Source text: From our previous results, we selected three opioid tetrapeptides with promising in vitro potency for further in vivo evaluation. […] We recently identified the opioid ligands H-Dmt-NMe-D ...

MOR [9] = tested on: MOR; set-up: method as in PMID 8981054, PMID 7712029; settings: cited from earlier work

Q: Which results are given for “H-Dmt-D-Arg-Aba-Gly-NMe-3',5'-Bn(CF3)2 [SBCHM01]”?
A: EC50 (DOR [1]): 43.3 ± 6.3 nM; tolerance development after repetitive administration (male C57Bl6 mice [2]; daily for 5 days, i.v. (morphine i.p.), measured on day 5): could not circumvent opioid induced tolerance; also recorded: mice had developed opioid-induced tolerance; also recorded: lower dose of SBCHM01 does not reduce the extent of tolerance development; also recorded: complete loss in antinociception on the fifth day of the experiment; also recorded: lost its antinociceptive potency completely upon chronic injection; %MPE (male C57Bl6 mice [2]; day 1, i.v., 2 mg/kg, 3 h, ± SEM): 71.13 ± 4.71%; potency at 180 min (male C57Bl6 mice [2]; day 1, SBCHM01 2 mg/kg i.v., morphine 4 mg/kg i.p.): decrease in potency is clearly visible; antinociceptive activity on the fifth day (male C57Bl6 mice [2]; day 5, i.v., 2 mg/kg daily, up to 3 h): Complete abolishment of SBCHM01's antinociceptive activity on the fifth day; %MPE (male C57Bl6 mice [2]; day 5, i.v., 4 mg/kg daily, 30 min, ± SEM (AN81 7-10 animals, p < 0.001; SBCHM01 8-10 mice)): 12.25 ± 7.33%; Ki (MOR [3]): 0.416 ± 0.012 nM; fold decrease in DOR potency vs AN81 (DOR [4]): 103 fold; Ki (DOR [5]): 10.4 ± 0.6 nM; EC50 (MOR [6]): 8.51 ± 0.62 nM; NK1R pA2 (NK1R): 7.8; Ki (hNK1R): 0.5 ± 0.1 nM; fold decrease in DOR binding vs AN81 (DOR [7]): 17 fold; %MPE (male C57Bl6 mice [8]; 2 mg/kg, first day of treatment): 85.12 ± 5.43%; %MPE (male C57Bl6 mice [8]; 4 mg/kg, vs morphine: BVD03 p < 0.05, SBCHM01 p > 0.05): 80.47 ± 5.29%; antinociceptive activity relative to morphine (male C57Bl6 mice [8]; 4 mg/kg, whole period of measurements, morphine i.p. same dose): slightly weaker during the whole period of measurements; synergistic or potentiating effect of combined pharmacophores (male C57Bl6 mice [8]; opioid and NK1 pharmacophores in a single entity): neither an synergistic nor potentiating antinociceptive effect appears; Ki (KOR): 445 ± 81 nM

Q: Which “tolerance development compared to morphine” value (rodents) does the source give for “H-Tyr-D-Ala-Phe-Gly-Tyr-Pro-Ser-NH2 [dermorphin]” here?
A: induces less tolerance development when compared to morphine

Q: What about the “affinity and selectivity for the MOR” value (MOR [9]) of the same substance?
A: high affinity and selectivity for the MOR
